Source: patent publication US9114171B2, “Racecadotril liquid compositions” (McNeil-PPC, Inc., priority 2012, dated 2015)

Assay: Stability of Racecadotril in Beta-HPCD at 40° C., pH 3.6/4.0/4.5 (HPLC)
Format: physicochemical
Procedure: Test Methods Sample Preparation: • 1. Pipet 1 mL of Racecadotril solution into a 100 mL volumetric flask (V.F.) • 2. Dilute to volume with the same buffer used in the solution preparation. • 3. Further dilute the sample solution to about 0.1 mg/mL if necessary. […] Parameters may be modified to optimize chromatography. • The assay of Racecadotril is determined by using the external standard injected. The degradation products levels are determined by % peak area relative to the Racecadotril peak. Chromatographic Conditions (European Pharmacopoeia Racecadotril Method): [table] Gradient Table: [table] Mobil Phase A: Phosphate buffer, pH 2.5 (Buffer prep: dissolve 1 g of potassium dihydrogen phosphate in water, adjust to pH 2.5 with phosphoric acid, dilute to 1000 mL with water) Mobil Phase B: 100% Acetonitrile Stability of Racecadotril in Beta-Hydroxypropyl-Cyclodextrin (Beta-HPCD) at 40° C.

[1] = Acetate, pH 3.6, 40° C., 1 week
[2] = Acetate, pH 3.6, 40° C., 2 week
[3] = Acetate, pH 3.6, 40° C., 3 week
[4] = Acetate, pH 3.6, 40° C., 4 week
[5] = Acetate, pH 3.6, 40° C., 6 week
[6] = Acetate, pH 3.6, 40° C., 8 week
[7] = Acetate, pH 3.6, 40° C., Initial
[8] = Acetate, pH 4.0, 40° C., 1 week
[9] = Acetate, pH 4.0, 40° C., 2 week
[10] = Acetate, pH 4.0, 40° C., 3 week
[11] = Acetate, pH 4.0, 40° C., 4 week
[12] = Acetate, pH 4.0, 40° C., 6 week
[13] = Acetate, pH 4.0, 40° C., 8 week
[14] = Acetate, pH 4.0, 40° C., Initial
[15] = Acetate, pH 4.5, 40° C., 1 week
[16] = Acetate, pH 4.5, 40° C., 2 week
[17] = Acetate, pH 4.5, 40° C., 3 week
[18] = Acetate, pH 4.5, 40° C., 4 week
[19] = Acetate, pH 4.5, 40° C., 6 week
[20] = Acetate, pH 4.5, 40° C., 8 week
[21] = Acetate, pH 4.5, 40° C., Initial
[22] = Citrate, pH 3.6, 40° C., 1 week
[23] = Citrate, pH 3.6, 40° C., 2 week
[24] = Citrate, pH 3.6, 40° C., 3 week
[25] = Citrate, pH 3.6, 40° C., 4 week
[26] = Citrate, pH 3.6, 40° C., 6 week
[27] = Citrate, pH 3.6, 40° C., 8 week
[28] = Citrate, pH 3.6, 40° C., Initial
[29] = Citrate, pH 4.0, 40° C., 1 week
[30] = Citrate, pH 4.0, 40° C., 2 week
[31] = Citrate, pH 4.0, 40° C., 3 week
[32] = Citrate, pH 4.0, 40° C., 4 week
[33] = Citrate, pH 4.0, 40° C., 6 week
[34] = Citrate, pH 4.0, 40° C., 8 week
[35] = Citrate, pH 4.0, 40° C., Initial
[36] = Citrate, pH 4.5, 40° C., 1 week
[37] = Citrate, pH 4.5, 40° C., 2 week
[38] = Citrate, pH 4.5, 40° C., 3 week
[39] = Citrate, pH 4.5, 40° C., 4 week
[40] = Citrate, pH 4.5, 40° C., 6 week
[41] = Citrate, pH 4.5, 40° C., 8 week
[42] = Citrate, pH 4.5, 40° C., Initial

## CC(=O)SCC(Cc1ccccc1)C(=O)NCC(=O)OCc1ccccc1 (racemic) [Racecadotril]
[1]
  Benz Alcohol: 0.69%
  Impurity C: 0.93%
  Impurity G: 1.17%
  RAC: 97.21%
  Thiorphan: 0.00%
[2]
  Benz Alcohol: 1.40%
  Impurity C: 1.87%
  Impurity G: 1.74%
  RAC: 94.88%
  Thiorphan: 0.11%
[3]
  Benz Alcohol: 2.13%
  Impurity C: 2.78%
  Impurity G: 1.93%
  RAC: 93.01%
  Thiorphan: 0.14%
[4]
  Benz Alcohol: 2.84%
  Impurity C: 3.56%
  Impurity G: 3.00%
  RAC: 90.15%
  Thiorphan: 0.30%
[5]
  Benz Alcohol: 4.33%
  Impurity C: 5.17%
  Impurity G: 3.82%
  RAC: 85.75%
  Thiorphan: 0.57%
[6]
  Benz Alcohol: 5.78%
  Impurity C: 6.33%
  Impurity G: 5.28%
  RAC: 80.68%
  Thiorphan: 1.00%
[7]
  Benz Alcohol: 0.00%
  Impurity C: 0.00%
  Impurity G: 0.07%
  RAC: 99.93%
  Thiorphan: 0.00%
[8]
  Benz Alcohol: 0.70%
  Impurity C: 0.93%
  Impurity G: 1.36%
  RAC: 97.01%
  Thiorphan: 0.00%
[9]
  Benz Alcohol: 1.39%
  Impurity C: 1.82%
  Impurity G: 1.70%
  RAC: 95.02%
  Thiorphan: 0.07%
[10]
  Benz Alcohol: 2.09%
  Impurity C: 2.83%
  Impurity G: 2.66%
  RAC: 92.23%
  Thiorphan: 0.19%
[11]
  Benz Alcohol: 2.84%
  Impurity C: 3.52%
  Impurity G: 3.62%
  RAC: 89.50%
  Thiorphan: 0.38%
[12]
  Benz Alcohol: 4.28%
  Impurity C: 5.16%
  Impurity G: 5.67%
  RAC: 83.98%
  Thiorphan: 0.71%
[13]
  Benz Alcohol: 5.37%
  Impurity C: 6.20%
  Impurity G: 8.46%
  RAC: 78.53%
  Thiorphan: 1.19%
[14]
  Benz Alcohol: 0.00%
  Impurity C: 0.00%
  Impurity G: 0.00%
  RAC: 100.00%
  Thiorphan: 0.00%
[15]
  Benz Alcohol: 0.02%
  Impurity C: 0.21%
  Impurity G: 3.17%
  RAC: 96.33%
  Thiorphan: 0.02%
[16]
  Benz Alcohol: 0.40%
  Impurity C: 0.40%
  Impurity G: 6.50%
  RAC: 92.61%
  Thiorphan: 0.04%
[17]
  Benz Alcohol: 0.59%
  Impurity C: 0.58%
  Impurity G: 9.43%
  RAC: 89.29%
  Thiorphan: 0.06%
[18]
  Benz Alcohol: 0.79%
  Impurity C: 0.72%
  Impurity G: 11.84%
  RAC: 86.50%
  Thiorphan: 0.11%
[19]
  Benz Alcohol: 1.14%
  Impurity C: 1.04%
  Impurity G: 17.32%
  RAC: 80.25%
  Thiorphan: 0.20%
[20]
  Benz Alcohol: 1.51%
  Impurity C: 1.25%
  Impurity G: 21.73%
  RAC: 75.06%
  Thiorphan: 0.36%
[21]
  Benz Alcohol: 0.02%
  Impurity C: 0.02%
  Impurity G: 0.21%
  RAC: 99.68%
  Thiorphan: 0.01%
[22]
  Benz Alcohol: 0.79%
  Impurity C: 0.98%
  Impurity G: 1.78%
  RAC: 96.45%
  Thiorphan: 0.00%
[23]
  Benz Alcohol: 1.72%
  Impurity C: 2.30%
  Impurity G: 3.81%
  RAC: 92.01%
  Thiorphan: 0.13%
[24]
  Benz Alcohol: 2.59%
  Impurity C: 3.36%
  Impurity G: 5.52%
  RAC: 88.22%
  Thiorphan: 0.31%
[25]
  Benz Alcohol: 3.38%
  Impurity C: 4.23%
  Impurity G: 7.38%
  RAC: 84.51%
  Thiorphan: 0.47%
[26]
  Benz Alcohol: 5.09%
  Impurity C: 6.13%
  Impurity G: 9.72%
  RAC: 77.91%
  Thiorphan: 1.11%
[27]
  Benz Alcohol: 6.64%
  Impurity C: 7.54%
  Impurity G: 12.47%
  RAC: 71.51%
  Thiorphan: 1.80%
[28]
  Benz Alcohol: 0.00%
  Impurity C: 0.00%
  Impurity G: 0.09%
  RAC: 99.91%
  Thiorphan: 0.00%
[29]
  Benz Alcohol: 0.89%
  Impurity C: 1.23%
  Impurity G: 1.95%
  RAC: 95.93%
  Thiorphan: 0.00%
[30]
  Benz Alcohol: 1.41%
  Impurity C: 1.82%
  Impurity G: 3.47%
  RAC: 93.19%
  Thiorphan: 0.11%
[31]
  Benz Alcohol: 2.36%
  Impurity C: 2.82%
  Impurity G: 4.79%
  RAC: 89.81%
  Thiorphan: 0.21%
[32]
  Benz Alcohol: 2.79%
  Impurity C: 3.43%
  Impurity G: 6.57%
  RAC: 86.78%
  Thiorphan: 0.40%
[33]
  Benz Alcohol: 4.19%
  Impurity C: 4.98%
  Impurity G: 9.24%
  RAC: 80.70%
  Thiorphan: 0.85%
[34]
  Benz Alcohol: 5.54%
  Impurity C: 6.22%
  Impurity G: 11.26%
  RAC: 75.46%
  Thiorphan: 1.42%
[35]
  Benz Alcohol: 0.00%
  Impurity C: 0.00%
  Impurity G: 0.00%
  RAC: 100.00%
  Thiorphan: 0.00%
[36]
  Benz Alcohol: 0.22%
  Impurity C: 0.18%
  Impurity G: 3.15%
  RAC: 96.44%
  Thiorphan: 0.01%
[37]
  Benz Alcohol: 0.40%
  Impurity C: 0.36%
  Impurity G: 6.04%
  RAC: 93.19%
  Thiorphan: 0.03%
[38]
  Benz Alcohol: 0.59%
  Impurity C: 0.52%
  Impurity G: 8.66%
  RAC: 90.20%
  Thiorphan: 0.06%
[39]
  Benz Alcohol: 0.79%
  Impurity C: 0.62%
  Impurity G: 11.16%
  RAC: 87.41%
  Thiorphan: 0.10%
[40]
  Benz Alcohol: 1.14%
  Impurity C: 0.90%
  Impurity G: 15.86%
  RAC: 82.05%
  Thiorphan: 0.17%
[41]
  Benz Alcohol: 1.51%
  Impurity C: 1.11%
  Impurity G: 19.95%
  RAC: 77.34%
  Thiorphan: 0.29%
[42]
  Benz Alcohol: 0.02%
  Impurity C: 0.01%
  Impurity G: 0.19%
  RAC: 99.71%
  Thiorphan: 0.01%
